Experimental findings from US5554631A, “5-pyrrolyl-6-halogeno-2-pyridylmethylsulfinyl benzimidazole derivatives” (Il-Yang Pharm. Co., Ltd., priority 1994, dated 1996) are described below.

Where a name gives a salt, the structure may show the parent alone. Read-outs that look alike come from different tables or passages of the source.

In one assay the target is T1, H^+ /K^+ -ATPase (Oryctolagus cuniculus, UniProt P27112).
T1 construct: The gastric mucous membrane was removed from rabbit; from tissue; host or cells: rabbit gastric mucosa, microsomal fraction (77,000 xg)
The assay can be described thus: Inhibition of H+/K+-ATPase enzyme activity in vitro. Format: biochemical, rabbit. As to conditions: 5 min pre-incubation at 37° C., 4 mM ATP. The procedure: The gastric mucous membrane was removed from rabbit and then centrifuged with 77,000 xg using a ultracentrifuge to separate the microsomal fraction which was used as the source of H^+ /K^+ -ATPase enzyme for this test. 60 μg of H^+ /K^+ -ATPase was pre-incubated with the sample (the compound according to the present invention) for 5 minutes at 37° C. and then 4 mM ATP as the substrate and 4 mM Mg^++, 20 mM K^+ as the cofactor were added thereto. Then, the amount of inorganic phosphorus thus produced was determined using a spectrophotometer at 660 nm and converted into the amount of protein according to Lowry method. […]

Another assay has as its system acidity. The assay can be described thus: Inhibition of acidity (total acid output), Shay method. Format: in vivo, SD male rats. Particulars: for Volume (inhibition of acidity) / Inhibition rate, acidity: intraduodenal; for Inhibition rate, acidity: vs normal group. The procedure:
(§1) The specific test methods are as follows.
(§2) SD male rats (200±20 g) were fasted for 24 hours, except for water, and then anesthesized with ether. The abdomen of rats was incised and then the pylorus was ligated. The test compounds were suspended or dissolved in […] (carboxymethylcellulose) and injected into duodenum. After the abdomen was suctured, the rats were allowed to stand for 5 hours and then sacrificed with ether. The stomach was removed from rats and the gastric juices were collected. The gastric juice was centrifuged with 10,000×g for 10 minutes at 4° C. to remove the precipitate. The amount of gastric juice and acidity were determined using pH 7.0 end point assay with 0.02N NaOH and then the total acid output was calculated.

The next assay concerns gastric juice secretion. The assay can be described thus: Inhibition of gastric juice secretion, Shay method. As to conditions: for Gastric juice volume / Inhibition rate, gastric juice secretion: intraduodenal; for Inhibition rate, gastric juice secretion: vs normal group. Format: in vivo, SD male rats. The procedure:
as §1, §2

Setting [1] is: rabbit gastric microsomal H+/K+-ATPase, read-out: IC50.

T1 sequence (P27112 2-1035 limits assumed): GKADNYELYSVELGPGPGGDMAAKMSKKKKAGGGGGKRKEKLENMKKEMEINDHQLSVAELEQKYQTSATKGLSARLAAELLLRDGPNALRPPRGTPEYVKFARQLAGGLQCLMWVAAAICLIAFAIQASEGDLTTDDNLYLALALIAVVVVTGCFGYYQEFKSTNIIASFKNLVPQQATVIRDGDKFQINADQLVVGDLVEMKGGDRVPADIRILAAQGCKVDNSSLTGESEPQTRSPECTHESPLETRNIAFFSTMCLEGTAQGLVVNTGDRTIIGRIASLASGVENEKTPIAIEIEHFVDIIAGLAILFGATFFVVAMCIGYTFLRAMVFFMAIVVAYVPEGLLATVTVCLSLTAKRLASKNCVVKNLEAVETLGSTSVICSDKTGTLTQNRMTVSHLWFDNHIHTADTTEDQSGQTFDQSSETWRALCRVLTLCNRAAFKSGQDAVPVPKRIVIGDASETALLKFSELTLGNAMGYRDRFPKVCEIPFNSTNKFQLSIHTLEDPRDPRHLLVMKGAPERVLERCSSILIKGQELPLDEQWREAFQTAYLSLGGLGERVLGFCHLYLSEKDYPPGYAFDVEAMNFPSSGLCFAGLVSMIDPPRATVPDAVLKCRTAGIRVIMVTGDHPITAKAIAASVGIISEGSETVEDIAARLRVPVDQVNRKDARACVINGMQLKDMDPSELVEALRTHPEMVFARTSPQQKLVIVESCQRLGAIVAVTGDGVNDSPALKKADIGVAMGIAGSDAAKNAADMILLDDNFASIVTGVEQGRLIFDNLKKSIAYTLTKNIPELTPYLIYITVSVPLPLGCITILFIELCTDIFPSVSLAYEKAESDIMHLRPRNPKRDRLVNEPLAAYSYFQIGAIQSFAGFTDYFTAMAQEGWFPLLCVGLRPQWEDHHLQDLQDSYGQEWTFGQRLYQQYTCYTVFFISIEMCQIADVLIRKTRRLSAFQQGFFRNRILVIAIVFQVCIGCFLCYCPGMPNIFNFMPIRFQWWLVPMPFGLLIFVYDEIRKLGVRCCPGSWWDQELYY
T1 sequence (P18597 whole entry partner): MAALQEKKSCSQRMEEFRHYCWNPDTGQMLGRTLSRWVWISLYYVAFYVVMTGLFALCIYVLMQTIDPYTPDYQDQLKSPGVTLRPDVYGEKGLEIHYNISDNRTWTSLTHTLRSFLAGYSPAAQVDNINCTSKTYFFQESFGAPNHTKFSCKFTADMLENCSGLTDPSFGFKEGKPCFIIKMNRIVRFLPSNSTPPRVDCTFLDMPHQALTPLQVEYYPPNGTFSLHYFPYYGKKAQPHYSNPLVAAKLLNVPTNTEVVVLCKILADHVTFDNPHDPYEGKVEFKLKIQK

Usually IC50 stands for the concentration needed to halve the response being measured. Regarding `COc1ccnc(CSc2nc3cc(-n4cccc4)c(F)cc3[nH]2)c1C` [Compound 1, 2-[[(4-methoxy-3-methyl)-2-pyridinyl]methylthio]-5-(1H-pyrrol-1-yl)-6-fluoro-1H-benzimidazole], at H^+ /K^+ -ATPase (setting [1]), the IC50 amounted to 420 µM.

As to `COc1cc(C[S+]([O-])c2nc3cc(-n4cccc4)c(F)cc3[nH]2)ncc1C` (stereo not drawn) [Compound 3], the IC50 at H^+ /K^+ -ATPase (setting [1]) came to 2000 µM.

With `COc1c(C)cnc(C[S+]([O-])c2nc3cc(-n4cccc4)c(F)cc3[nH]2)c1C` (stereo not drawn) [Compound 4], on H^+ /K^+ -ATPase (setting [1]), the IC50 turned out to be 430 µM.

In the case of `CCOc1ccnc(C[S+]([O-])c2nc3cc(-n4cccc4)c(F)cc3[nH]2)c1C` (stereo not drawn) [Compound 5], the “Volume (inhibition of acidity)” value in the assay with acidity (10 mg/kg, rat, 5 h) amounted to 21.85 ± 2.44 μEq/hr; with acidity (30 mg/kg, rat, 5 h), 11.84 ± 4.00 μEq/hr. For the same compound, the “Inhibition rate, acidity” value in the assay with acidity (10 mg/kg, rat, 5 h) is on record as 66.78%; in the assay on acidity (30 mg/kg, rat, 5 h) it was 82.00%. The Gastric juice volume is 1.63 ± 0.04 ml/100 g BW in the assay on gastric juice secretion (10 mg/kg, rat, 5 h) and 1.21 ± 0.10 ml/100 g BW in the assay on gastric juice secretion (30 mg/kg, rat, 5 h). Besides, the “Inhibition rate, gastric juice secretion” value with gastric juice secretion (10 mg/kg, rat, 5 h) is listed as 42.40%; in the assay with gastric juice secretion (30 mg/kg, rat, 5 h), 57.24%. The IC50 on H^+ /K^+ -ATPase (setting [1]) is less than 40 µM.

Take `CCOCCOc1ccnc(C[S+]([O-])c2nc3cc(-n4cccc4)c(F)cc3[nH]2)c1C` (stereo not drawn) [Compound 6, 2-[[(4-(2-ethoxyethoxy)-3-methyl)-2-pyridinyl]methylsulfinyl]-5-(1H-pyrrol-1-yl)-6-fluoro-1H-benzimidazole]: the IC50 on H^+ /K^+ -ATPase (setting [1]) was determined as 28 µM.

For the compound `COc1ccnc(C[S+]([O-])c2nc3cc(-n4cccc4)c(F)cc3[nH]2)c1OC` (stereo not drawn) [Compound 7], the IC50 on H^+ /K^+ -ATPase (setting [1]) was found to be 290 µM.

On to `COc1ccnc(C[S+]([O-])c2nc3cc(-n4cccc4)c(F)cc3[nH]2)c1` (stereo not drawn) [Compound 8], for which the IC50 at H^+ /K^+ -ATPase (setting [1]) was 1900 µM.

On to `[O-][S+](Cc1ccccn1)c1nc2cc(-n3cccc3)c(F)cc2[nH]1` (stereo not drawn) [Compound 9], for which, on H^+ /K^+ -ATPase (setting [1]), the IC50 came out at 4700 µM.

Turning to `Cc1cnc(C[S+]([O-])c2nc3cc(-n4cccc4)c(F)cc3[nH]2)c(C)c1OCC(F)(F)C(F)(F)F` (stereo not drawn) [Compound 11], on H^+ /K^+ -ATPase (setting [1]), the IC50 was 9300 µM.

On to `Cc1c(OCC(F)(F)C(F)(F)F)ccnc1C[S+]([O-])c1nc2cc(-n3cccc3)c(F)cc2[nH]1` (stereo not drawn) [Compound 12], for which the IC50 at H^+ /K^+ -ATPase (setting [1]) was determined as 150 µM.

Compound `Cc1c(OCC(F)(F)C(F)(F)C(F)(F)F)ccnc1C[S+]([O-])c1nc2cc(-n3cccc3)c(F)cc2[nH]1` (stereo not drawn) [Compound 13] gave an IC50 against H^+ /K^+ -ATPase (IC50, rabbit gastric microsomal H+/K+-ATPase) of 470 µM.

For `Cc1c(OCC(F)(F)C(F)(F)F)ccnc1CS(=O)(=O)c1nc2cc(-n3cccc3)c(F)cc2[nH]1` [Compound 14], at H^+ /K^+ -ATPase (setting [1]), the IC50 stood at 5300 µM.

Consider `COc1c(C)cnc(C[S+]([O-])c2nc3cc(-n4c(C)ccc4C)c(F)cc3[nH]2)c1C` (stereo not drawn) [Compound 15], for which, in the assay on acidity (10 mg/kg, rat, 5 h), the “Volume (inhibition of acidity)” value was 26.61 ± 5.27 μEq/hr and the “Inhibition rate, acidity” value came out at 51.81%. Moreover, in the assay with acidity (30 mg/kg, rat, 5 h), the “Volume (inhibition of acidity)” value came out at 12.74 ± 1.80 μEq/hr and the “Inhibition rate, acidity” value amounted to 76.93%. Also, in the assay on gastric juice secretion (10 mg/kg, rat, 5 h), the Gastric juice volume is given as 1.81 ± 0.19 ml/100 g BW and the “Inhibition rate, gastric juice secretion” value is recorded as 33.70%. In the assay with gastric juice secretion (30 mg/kg, rat, 5 h), the Gastric juice volume is recorded as 1.46 ± 0.13 ml/100 g BW and the “Inhibition rate, gastric juice secretion” value was 46.52%. Also, at H^+ /K^+ -ATPase (setting [1]), the IC50 was 50 µM.

One may read the ED50 as the dose that gives a 50% effect, or the effect in half of the subjects. In the case of `COc1ccnc(C[S+]([O-])c2nc3cc(-n4c(C)ccc4C)c(F)cc3[nH]2)c1C` (stereo not drawn) [Compound 16, 2-[[(4-methoxy-3-methyl)-2-pyridinyl]methylsulfinyl]-5-(1H-2,5-dimethylpyrrol-1-yl)-6-fluoro-1H-benzimidazole], the “Volume (inhibition of acidity)” value is listed as 25.65 ± 6.86 μEq/hr in the assay with acidity (3 mg/kg, rat, 5 h); 10.08 ± 3.71 μEq/hr in the assay on acidity (10 mg/kg, rat, 5 h); 1.75 ± 1.06 μEq/hr in the assay on acidity (30 mg/kg, rat, 5 h). For the same compound, the “Inhibition rate, acidity” value was determined as 64.68% in the assay with acidity (3 mg/kg, rat, 5 h); 86.12% in the assay on acidity (10 mg/kg, rat, 5 h); 97.59% in the assay with acidity (30 mg/kg, rat, 5 h). Also, the ED50 was found to be 1.85 mg/kg in the assay on acidity (Rattus norvegicus, 5 h) and 4.53 mg/kg with gastric juice secretion (Rattus norvegicus, 5 h). Further, the “Acidity lowering effect (in words)” value in the assay on acidity (rat) is “high acidity lowering effect”. Moreover, the Gastric juice volume with gastric juice secretion (3 mg/kg, rat, 5 h) is 1.92 ± 0.14 ml/100 g BW; with gastric juice secretion (10 mg/kg, rat, 5 h), 1.35 ± 0.15 ml/100 g BW; in the assay with gastric juice secretion (30 mg/kg, rat, 5 h), 0.98 ± 0.19 ml/100 g BW. Moreover, the “Inhibition rate, gastric juice secretion” value is 44.35% in the assay on gastric juice secretion (3 mg/kg, rat, 5 h); 60.87% with gastric juice secretion (10 mg/kg, rat, 5 h); 71.59% with gastric juice secretion (30 mg/kg, rat, 5 h). Further, the “Inhibition of gastric juice secretion (in words)” value with gastric juice secretion (rat) is “very strong inhibition of gastric juice secretion”. On H^+ /K^+ -ATPase (setting [1]), the IC50 was found to be 12 µM.

As for `COc1cc(C[S+]([O-])c2nc3cc(-n4c(C)ccc4C)c(F)cc3[nH]2)ncc1C` (stereo not drawn) [Compound 17], the IC50 at H^+ /K^+ -ATPase (setting [1]) amounted to 22 µM.

Regarding `Cc1cnc(C[S+]([O-])c2nc3cc(-n4c(C)ccc4C)c(F)cc3[nH]2)cc1C` (stereo not drawn) [Compound 18], the IC50 on H^+ /K^+ -ATPase (setting [1]) was 400 µM.

Regarding `COc1ccnc(C[S+]([O-])c2nc3cc(-n4c(C)ccc4C)c(F)cc3[nH]2)c1OC` (stereo not drawn) [Compound 19], the IC50 at H^+ /K^+ -ATPase (setting [1]) turned out to be 8100 µM.

With `COc1ccnc(C[S+]([O-])c2nc3cc(-n4c(C)ccc4C)c(F)cc3[nH]2)c1` (stereo not drawn) [Compound 20], the “Volume (inhibition of acidity)” value worked out at 18.41 ± 2.27 μEq/hr in the assay on acidity (10 mg/kg, rat, 5 h) and 11.31 ± 1.91 μEq/hr in the assay on acidity (30 mg/kg, rat, 5 h). For the same compound, the “Inhibition rate, acidity” value was 74.23% with acidity (10 mg/kg, rat, 5 h) and 84.17% in the assay on acidity (30 mg/kg, rat, 5 h). In addition, the Gastric juice volume with gastric juice secretion (10 mg/kg, rat, 5 h) is 1.41 ± 0.16 ml/100 g BW; in the assay on gastric juice secretion (30 mg/kg, rat, 5 h) it was 1.06 ± 0.10 ml/100 g BW. Besides, the “Inhibition rate, gastric juice secretion” value in the assay with gastric juice secretion (10 mg/kg, rat, 5 h) is given as 53.62%; in the assay with gastric juice secretion (30 mg/kg, rat, 5 h), 65.13%. Besides, at H^+ /K^+ -ATPase (setting [1]), the IC50 turned out to be 210 µM.

Consider `Cc1ccc(C)n1-c1cc2nc([S+]([O-])Cc3ccccn3)[nH]c2cc1F` (stereo not drawn) [Compound 21], for which the IC50 at H^+ /K^+ -ATPase (setting [1]) stood at 7600 µM.

For `Cc1cnc(C[S+]([O-])c2nc3cc(-n4c(C)ccc4C)c(F)cc3[nH]2)c(C)c1OCC(F)(F)F` (stereo not drawn) [Compound 22], the IC50 on H^+ /K^+ -ATPase (setting [1]) was found to be 390 µM.

For the compound `Cc1c(OCC(F)(F)F)ccnc1C[S+]([O-])c1nc2cc(-n3c(C)ccc3C)c(F)cc2[nH]1` (stereo not drawn) [Compound 23], on H^+ /K^+ -ATPase (setting [1]), the IC50 was 320 µM.

For the compound `COc1ccnc(C[S+]([O-])c2nc3cc(-n4cccc4)c(F)cc3[nH]2)c1C` (stereo not drawn) [Compound 24, 2-[[(4-methoxy-3-methyl)-2-pyridinyl]methylsulfinyl]-5-(1H-pyrrol-1-yl)-6-fluoro-1H-benzimidazole sodium salt], the IC50 on H^+ /K^+ -ATPase (setting [1]) is 5.6 µM.

Turning to `COc1ccnc(C[S+]([O-])c2nc3cc(-n4c(C)ccc4C)c(F)cc3[nH]2)c1C` (stereo not drawn) [Compound 25], the IC50 at H^+ /K^+ -ATPase (setting [1]) is 5.9 µM.
